Source: ChEMBL document CHEMBL1151343, “Antitumor plants. X. Constituents of Nectandra rigida” (1980)
≈ marks a conversion by molar mass, not a printed value.

Test system: KB
Test: Cytotoxicity against human KB cells
Format: functional
Settings: read-out: ED50 (the source's name)

Work on `C/C=C/c1cc(OC)c2c(c1)[C@H](C)[C@@H](c1ccc(O)c(OC)c1)O2` [LICARIN A] yielded an EC50 of 7 µg/mL (≈ 21.4 µM).
